From patent US12679838B2, “Aromatic compound and application thereof in antitumor drug” (Shanghai Zheye Biotechnology Co., Ltd., priority 2020, dated 2026) come the findings set out here.

Read-outs that look alike come from different tables or passages of the source.

One series has as its system NCI-H358 cells. Put plainly: Cell proliferation inhibitory activity, NCI-H358 (CellTiter-Glo). Type of series: cell-based. As to conditions: for IC50: Homo sapiens. As for the experimental part: (§1) NCI-H358 cells in an exponential growth phase were digested with trypsin-EDTA and plated in a 96-well plate at 2000-3000 cells per well and incubated overnight at 37° C. with 5% CO2. A test compound was prepared as a mother liquor with DMSO, diluted with a RPMI 1640 growth medium in a concentration gradient and added to the 96-well plate and incubated for 72 hours at 37° C. in a 5% CO2 incubator. After incubation, an equal volume of CellTiter-Glo detection reagent was added to each well and incubated after shaking, and a chemiluminescence value was measured by a microplate reader, and the IC50 value for the inhibition of NCI-H358 cell proliferation was fitted and calculated by GraphPad Prism software.
The inhibitory effect of the compounds on the proliferation activity of H358 cells was tested with reference to the method of the biological test 2, and the results were as follows:
The inhibitory effect of the compounds on the proliferation activity of NCI-H358 cells was tested with reference to the method of the biological test 2, and the results were as follows.
(In general: ATP-based viability assays read luminescence as a measure of living cells.)

Series [1] can be described thus: Two-week repeated dosing safety test. As to conditions: SD rats, 400 mg/kg oral gavage once a day, 14 days. Format: in vivo. The procedure:
Samples for testing: compound 3-29; compound 3-16M; and compound 3-32.
Animal species and number: SD rats; 6 rats per group (half male and half female).
(§2) Mode of administration: oral gavage.
Animal grouping and administration dose: solvent blank group and compound 3-29 group (400 mg/kg); compound 3-16M group (400 mg/kg); and compound 3-32 group (400 mg/kg).
Administration frequency: once a day, and administration for 14 days.
After administration, a toxic reaction was observed by cages for 4 hours, and detailed clinical observation was made on animals with obvious abnormal performances. General clinical observation included twice a day during the duration of test (once in the morning and once in the afternoon). Death, morbidity, respiration, secretion, faeces, diet, drinking water, and other conditions were observed and weight changes of the rats during administration were recorded. Detailed clinical observations included but were not limited to behavioral activity, skin, coat, eyes, ears, nose, abdomen, external genitals, anus, extremities, feet, and respiration. After the administration, the animals in each group were euthanized, and all the animals were dissected and observed grossly.

The subject of series [2] is NCI-H358 tumor cells xenograft. Put plainly: Pharmacodynamics test of xenograft tumor model of NCI-H358 in nude mice. Type of series: in vivo, Balb/c Nude mice. As to conditions: 100 mg/kg; for Tumor suppression ratio (%): NCI-H358 xenograft, QD×15 days, oral gavage. As for the experimental part: Animal species and number: Balb/c Nude; 6 animals per group.
Samples for testing: compound 3-2M, compound 3-16M, TM-1, TM-3, and AMG510 (obtained by purchasing).
Test groups: blank solvent control group; compound 3-2M (100 mg/kg, QD×15 days), compound 3-16M (100 mg/kg, QD×15 days), TM-1 (100 mg/kg, QD×15 days), TM-3 (100 mg/kg, QD×15 days); and AMG510 (100 mg/kg, QD×15 days).
Animal model establishment: NCI-H358 tumor cells at logarithmic phase were cultured and collected in vitro, and inoculated subcutaneously on the right side of the back of nude mice at a quantity of 5×10^6 cells/each, and the tumor-bearing nude mice were randomly grouped when the tumor volume grew to 150-300 mm^3. Subsequently, each group of animals was administered and the day of the first administration was defined as day 1 of the test.
(§3) Administration route and frequency: oral gavage; and once a day.
General state observation: observation time and frequency: once a day; observation index or content: including, but is not limited to local administration, appearance and signs, general behavioral activities, mental status, death and other abnormal manifestations of the animals. The animals were euthanized at the end of the test.
Tumor volume calculation: V=½×long diameter× short diameter^2 (mm^3). Tumor growth inhibition ratio TGI (%) was used to evaluate the tumor suppressive efficacy of the compounds. TGI (%)=[1-(mean tumor volume at the end of administration of the treatment group−mean tumor volume at the beginning of administration of the treatment group)/(mean tumor volume at the end of administration of the control group−mean tumor volume at the beginning of administration of the control group)]×100%.

The test system of the next series is NCI-H358. The series can be described thus: Cell proliferation inhibitory activity of NCI-H358, 3D model test (agarose colony formation). Type of series: cell-based. As to conditions: for IC50: Homo sapiens, NCI-H358, agarose gel, colony formation, NBT staining. The procedure:
100 μl of high concentration agarose gel was spread in a 96-well plate as a bottom agarose gel layer; low concentration agarose and growth medium containing cells were mixed and spread on the bottom agarose gel layer, cooled and solidified and incubated overnight at 37° C.; a test compound was prepared into a mother liquor with DMSO, diluted with a RPMI 1640 growth medium in a concentration gradient, and the gradient diluted solution of the compound to be tested with different concentrations was added into 96 wells containing upper agarose gel cells, and solvent control wells were set and placed in a carbon dioxide incubator for culture. During the period, the drug-containing medium was changed to observe the cell growth. After the culture, the cells were stained with NBT, the number of colony formation was counted, and the IC50 value of the compound inhibiting cell proliferation was obtained.

A further series has as its target T1, hERG potassium channel (Homo sapiens, UniProt Q12809).
T1 construct: expressed in transfected cells; host or cells: HEK-293
Put plainly: hERG potassium channels, electrophysiological manual patch clamp. Format: cell-based. As for the experimental part: Preparation of test solution: the solution of test compound 3-16M was subjected to conventional ultrasound and oscillation to ensure complete dissolution of the compound.
Cell culture: the cell lines were derived from HEK-293 cells which overexpressed hERG potassium channel. The cells were cultured in a 5% CO2 incubator at 37°. When a cell density reached 80% of a culture dish, the cells were pre-washed with a phosphate buffer solution (PBS), and then digested with trypsin/EDTA, and a cell culture medium was added to stop digestion. The cells were gently blown with a pipette and transferred to a centrifuge tube, centrifuged at 1000 rpm, the supernatant was poured out, and then the cell culture medium was added. The cells were gently blown and mixed evenly, then transferred to a culture dish for subculture, or the cells were dripped on a round slide and placed in a culture dish for the cells to adhere to the wall for test.
The hERG IC50 value of the compound calculated by electrophysiology manual patch clamp system test was as follows: […]
(In general: The hERG channel carries a current that helps repolarise heart muscle cells.)

Series [3] can be described thus: Preliminary safety test of compounds, 3-day oral gavage. As to conditions: mouse, in vivo, Balb/c, tentatively suggested, read-out: maximum tolerated dose. As for the experimental part:
Samples for testing: compound 3-2M and compound 3-6M.
Animal species and number: Balb/c; 3 animals per group.
as §2
Animal grouping and administration dose: solvent blank group and compound 3-2M group (400 mg/kg, 800 mg/kg); compound 3-6M group (400 mg/kg, 800 mg/kg).
Administration frequency: once a day, and administration for 3 days.

A short description of series [4]: Analysis of therapeutic safety window. As to conditions: in vivo, oral, 3 days.
The subject of series [5] is MIA-paca-2 cells subcutaneous transplanted tumor. The series can be described thus: Pharmacodynamic test of CDX model in nude mice. Type of series: in vivo. As to conditions: 10 mg/kg, QD×15 days. As for the experimental part: Animal species and number: Balb/c Nude.
Test groups: blank solvent control group; compound 3-2M (10 mg/kg, QD×15 days), and compound 3-6M (10 mg/kg, QD×15 days).
Animal model establishment: MIA-paca-2 cells were cultured in vitro and inoculated subcutaneously on the right side of the back of nude mice, and the tumor-bearing nude mice were randomly grouped. Subsequently, each group of animals was administered and the day of the first administration was defined as day 1 of the test.
as §3
General state observation: observation time and frequency: once a day; observation index or content: including, but not limited to local administration, appearance and signs, general behavioral activities, mental status, death and other abnormal manifestations of the animals. The animals were euthanized at the end of the test.
Tumor volume calculation: V=½×long diameter×short diameter^2 (mm^3). Tumor growth inhibition ratio TGI (%) was used to evaluate the tumor suppressive efficacy of the compounds. TGI (%)=[1-(mean tumor volume at the end of administration of the treatment group−mean tumor volume at the beginning of administration of the treatment group)/(mean tumor volume at the end of administration of the control group−mean tumor volume at the beginning of administration of the control group)]×100%.

A further series relates to MIA PaCa-2 cells. The series can be described thus: Cell proliferation inhibitory activity, MIA PaCa-2 (CellTiter-Glo). Type of series: cell-based. As for the experimental part: as §1, with “MIA PaCa-2” for “NCI-H358”, “DMEM” for “RPMI 1640”
Series [6] relates to Langendorff isolated perfused heart. Put plainly: In vitro isolated heart perfusion test (Langendorff). Also noted: species or system Guinea pig. As to conditions: 3.3 μM. The text has this: Test method: influences of Langendorff isolated perfused heart test compounds on electrocardiogram, wherein the test method used in this test was as follows: [table] Test compounds: compound 3-2M and the compound in Example 41 of patent WO2018217651A1 (i.e., AMG510).

Setting [7] is: NCI-H358, 72 h, biological test 2, NCI-H358 cells, 72 hours, read-out: Cell proliferation inhibitory activity IC50 value of H358.

T1 sequence (Q12809 whole entry): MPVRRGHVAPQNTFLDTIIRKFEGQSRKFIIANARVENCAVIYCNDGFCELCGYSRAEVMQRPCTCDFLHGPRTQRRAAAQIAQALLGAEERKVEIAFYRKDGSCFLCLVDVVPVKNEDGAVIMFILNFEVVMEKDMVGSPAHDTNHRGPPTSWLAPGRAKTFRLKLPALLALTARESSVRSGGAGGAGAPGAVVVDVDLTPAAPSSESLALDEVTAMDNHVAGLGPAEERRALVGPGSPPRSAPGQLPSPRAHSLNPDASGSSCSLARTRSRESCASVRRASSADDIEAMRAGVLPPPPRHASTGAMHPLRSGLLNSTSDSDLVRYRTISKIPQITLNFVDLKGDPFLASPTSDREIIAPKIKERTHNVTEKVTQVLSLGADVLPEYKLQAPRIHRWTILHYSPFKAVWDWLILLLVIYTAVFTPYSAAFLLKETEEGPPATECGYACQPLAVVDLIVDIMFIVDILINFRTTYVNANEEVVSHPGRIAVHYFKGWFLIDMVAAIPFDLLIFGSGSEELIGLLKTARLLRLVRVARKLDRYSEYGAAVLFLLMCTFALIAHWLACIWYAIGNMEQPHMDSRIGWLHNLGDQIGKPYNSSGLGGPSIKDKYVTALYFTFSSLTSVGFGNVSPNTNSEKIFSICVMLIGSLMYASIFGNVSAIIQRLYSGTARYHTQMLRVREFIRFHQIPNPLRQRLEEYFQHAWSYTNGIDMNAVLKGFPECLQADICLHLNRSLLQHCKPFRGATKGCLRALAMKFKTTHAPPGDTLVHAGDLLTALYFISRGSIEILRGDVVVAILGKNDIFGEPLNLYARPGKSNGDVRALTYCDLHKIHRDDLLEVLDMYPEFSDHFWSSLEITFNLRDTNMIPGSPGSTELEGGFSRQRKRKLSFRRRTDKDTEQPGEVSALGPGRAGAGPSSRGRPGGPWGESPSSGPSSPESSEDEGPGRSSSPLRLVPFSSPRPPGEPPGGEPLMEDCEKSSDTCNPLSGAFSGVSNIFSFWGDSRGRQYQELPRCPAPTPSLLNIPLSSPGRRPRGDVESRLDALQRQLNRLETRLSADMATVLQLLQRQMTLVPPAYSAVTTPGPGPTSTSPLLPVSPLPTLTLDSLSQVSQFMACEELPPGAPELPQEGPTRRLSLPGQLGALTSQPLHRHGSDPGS

In the case of `C=CC(=O)N1CCN(c2nc(=O)n(-c3c(CF)ccnc3C(C)C)c3nc(-c4ccccc4C=O)c(Cl)cc23)[C@@H](C)C1` [Compound 3-29], in the series on NCI-H358 cells, the “cell proliferation inhibitory activity against KRAS G12C mutant cells NCI-H358 (in words)” value is “significant cell proliferation inhibitory activities”. In addition, in the series with NCI-H358 cells (biological test 7, NCI-H358 cells, read-out: Cell proliferation inhibitory activity IC50 value of NCI-H358), the IC50 was under 50 nM. For the same molecule, the “general observation: water intake, feeding, activity, body weight” value (“general observation: water intake” below) in [1] is given as “no obvious abnormal performance”.

Take `[2H]C(=O)c1ccccc1-c1nc2c(cc1Cl)c(N1CCN(C(=O)C=C)C[C@@H]1C)nc(=O)n2-c1c(C)ccnc1C(C)C` (atropisomer, axis not shown) [Compound 3-16M]: the “inhibition of subcutaneous transplanted tumor growth of lung cancer NCI-H358 cells in nude mice (in words)” value in series [2] was “significant inhibitory effects”. In series [2], the “Tumor suppression ratio (%)” value is “++++ (“++++” represents that the tumor suppression ratio is greater than 140%)”. In addition, the “cell proliferation inhibitory activity against KRAS G12C mutant cells NCI-H358 (in words)” value with NCI-H358 cells is “significant cell proliferation inhibitory activities”. The IC50 is at most 50 nM with NCI-H358 cells (setting [7]); 1.1 nM in the series with NCI-H358; over 100000 nM against hERG potassium channel (HEK-293 cells overexpressing hERG); over 100000 nM on hERG potassium channel (human, HEK-293 cells overexpressing hERG potassium channel, test concentration range). Further, the “general observation: water intake” value in [1] was “no obvious abnormal performance”. In the series on NCI-H358, the “cell proliferation inhibitory activity against NCI-H358, 3D model (in words)” value was “significant cell proliferation inhibitory activities”.

Turning to `C=CC(=O)N1CCN(c2nc(=O)n(-c3c(C)ccnc3C(C)C)c3nc(-c4c(F)cccc4C=O)c(Cl)cc23)[C@@H](C)C1` (single isomer, unassigned) [Compound 3-6M], in [3], the MTD at 3 days is over 800 mg/kg. Further, in series [4], the “therapeutic safety window: ratio of toxic dose to onset dose” value is reported as “greater than 80 times”. For the same molecule, in series [5], the “inhibition of subcutaneous transplanted tumor growth of pancreatic cancer MIA-paca-2 cells in nude mice (in words)” value was “significant inhibition of subcutaneous transplanted tumor growth”; the “toxicity during administration in CDX test (food and water intake, activities, weight)” value is “showed no toxicity”. In the series on NCI-H358 cells, the “cell proliferation inhibitory activity against KRAS G12C mutant cells NCI-H358 (in words)” value is reported as “significant cell proliferation inhibitory activities”. The “cell proliferation inhibitory activity, R-configuration compared with corresponding S-configuration compound (in words)” value with NCI-H358 cells (H358) is on record as “significantly better than that of the corresponding compound 3-6P”. Besides, the IC50 in the series with NCI-H358 cells (setting [7]) is at most 50 nM. For the same molecule, the “cell proliferation inhibitory activity against KRAS G12C mutant cells MIA PaCa-2 (in words)” value with MIA PaCa-2 cells is reported as “significant cell proliferation inhibitory activities”. In addition, the IC50 with MIA PaCa-2 cells (Homo sapiens, MIA PaCa-2 cells, 72 hours) is under 50 nM.

Regarding `C=CC(=O)N1CCN(c2nc(=O)n(-c3c(CN(C)C)ccnc3C(C)C)c3nc(-c4ccccc4C=O)c(Cl)cc23)[C@@H](C)C1` [Compound 3-32], in the series with NCI-H358 cells, the “cell proliferation inhibitory activity against KRAS G12C mutant cells NCI-H358 (in words)” value is listed as “significant cell proliferation inhibitory activities”. Moreover, the IC50 in the series on NCI-H358 cells (NCI-H358, biological test 7, NCI-H358 cells, read-out: Cell proliferation inhibitory activity IC50 value of NCI-H358) was under 50 nM. The “general observation: water intake” value in series [1] was “no obvious abnormal performance”.

As for `C=CC(=O)N1CCN(c2nc(=O)n(-c3c(C)ccnc3C(C)C)c3nc(-c4c(O)cccc4F)c(F)cc23)[C@@H](C)C1` [AMG510, reference compound], the “effect on the heart rate of the isolated heart (in words)” value in series [6] is “significant effect on reducing the heart rate”. Besides, the “HR (heart rate) change %” value in series [6] (Guinea pig isolated heart) is “C (“C” represents that the heart rate decreases by greater than or equal to 15%)”. In addition, the “Tumor suppression ratio (%)” value in [2] is “+++ (“+++” represents that the tumor suppression ratio is between 101% and 140%)”. The molecule further gave an IC50 in the series on NCI-H358 of 9.3 nM.
